From the NIST ThermoML archive (doi:10.1021/je050165t)

Experiments:
[1] = 101 kPa, Liquid
[2] = xn = mol fraction of the nth substance listed; conditions: 101 kPa, Liquid

CCCCn1cc[n+](C)c1.F[P-](F)(F)(F)(F)F [1-butyl-3-methylimidazolium hexafluorophosphate]
[1]
Conditions	mass density [kg/m3]	speed of sound [m/s]
298.15 K	1366.66	1442.4
303.15 K	1362.4	1430.6
308.15 K	1358.3	1419
313.15 K	1354.19	1407.5
318.15 K	1350.08	1396.3

CCCCn1cc[n+](C)c1.F[P-](F)(F)(F)(F)F [1-butyl-3-methylimidazolium hexafluorophosphate] + CC#N
[2]
Conditions	mass density, 298.15 K [kg/m3]	mass density, 303.15 K [kg/m3]	mass density, 308.15 K [kg/m3]	mass density, 313.15 K [kg/m3]	mass density, 318.15 K [kg/m3]	speed of sound, 298.15 K [m/s]	speed of sound, 303.15 K [m/s]	speed of sound, 308.15 K [m/s]	speed of sound, 313.15 K [m/s]	speed of sound, 318.15 K [m/s]
x1 = 0.0453	878.471	873.235	866.821	862.713	857.428	1293.5	1275.1	1256.7	1238.4	1220.2
x1 = 0.0935	959.103	954.02	948.924	943.817	938.706	1308.9	1291.8	1274.6	1257.5	1240.5
x1 = 0.2007	1085.08	1080.25	1075.41	1070.58	1065.76	1341.9	1326.2	1310.9	1295.8	1280.9
x1 = 0.2966	1159.89	1155.23	1150.56	1145.9	1141.24	1366.5	1352.2	1338.1	1324	1310
x1 = 0.4241	1228.44	1223.91	1219.4	1214.89	1210.4	1389	1375.6	1362.3	1349.2	1336.3
x1 = 0.514	1263.52	1258.71	1254.64	1250.22	1245.81	1402	1389.2	1376.5	1363.8	1351.2
x1 = 0.6186	1294.95	1290.95	1286.59	1282.25	1277.92	1413.5	1401	1388.7	1376.5	1364.4
x1 = 0.7285	1320.82	1316.59	1312.32	1308.06	1303.82	1423.9	1411.8	1399.9	1388	1376.2
x1 = 0.7886	1332.55	1328.3	1324.05	1319.81	1315.59	1427.9	1415.9	1404.1	1392.4	1380.8
x1 = 0.8925	1350.78	1346.33	1342.2	1338.05	1333.89	1436.5	1424.5	1412.6	1401	1389.5
x1 = 1	1366.66	1362.4	1358.3	1354.19	1350.08	1442.4	1430.6	1419	1407.5	1396.3

CCCCn1cc[n+](C)c1.F[P-](F)(F)(F)(F)F [1-butyl-3-methylimidazolium hexafluorophosphate] + CO
[2]
Conditions	mass density, 298.15 K [kg/m3]	mass density, 303.15 K [kg/m3]	mass density, 308.15 K [kg/m3]	mass density, 313.15 K [kg/m3]	mass density, 318.15 K [kg/m3]	speed of sound, 298.15 K [m/s]	speed of sound, 303.15 K [m/s]	speed of sound, 308.15 K [m/s]	speed of sound, 313.15 K [m/s]	speed of sound, 318.15 K [m/s]
x1 = 0.0223	852.499	847.778	843.039	838.277	833.49	1132.1	1116.9	1101.8	1086.7	1071.7
x1 = 0.0484	914.856	910.156	905.442	900.703	895.952	1155.5	1141.5	1127.5	1113.6	1099.7
x1 = 0.0786	972.943	968.272	963.583	958.877	954.071	1180.7	1167.7	1154.6	1141.6	1128.6
x1 = 0.1869	1111.37	1106.76	1102.15	1097.53	1092.91	1261.6	1249.8	1238	1226.1	1214.3
x1 = 0.2156	1136.5	1131.89	1127.3	1122.7	1118.12	1280.7	1268.9	1257.2	1245.5	1233.8
x1 = 0.3573	1223.91	1219.39	1214.87	1210.36	1205.87	1340.7	1329.1	1317.5	1306	1294.5
x1 = 0.4572	1263.6	1259.04	1254.81	1250.5	1246.03	1366.7	1355.1	1343.6	1332.1	1320.7
x1 = 0.6222	1308.96	1304.59	1300.24	1295.96	1291.78	1400.5	1388.9	1377.4	1365.9	1354.7
x1 = 0.7736	1337.5	1333.24	1328.99	1324.76	1320.54	1421.1	1409.5	1398	1386.6	1375.3
x1 = 0.9208	1357.7	1353.55	1349.39	1345.23	1341.08	1435.2	1423.5	1411.9	1400.6	1389.4
x1 = 1	1366.66	1362.4	1358.3	1354.19	1350.08	1442.4	1430.6	1419	1407.5	1396.3

CC#N [acetonitrile]
[1]
Conditions	mass density [kg/m3]	speed of sound [m/s]
298.15 K	776.533	1278.6
303.15 K	771.116	1258.7
308.15 K	765.66	1238.7
313.15 K	760.162	1218.5
318.15 K	754.462	1198.3

CC#N [acetonitrile] + CCCCn1cc[n+](C)c1.F[P-](F)(F)(F)(F)F
[2], x2 = 0
Conditions	mass density [kg/m3]	speed of sound [m/s]
298.15 K	776.533	1278.6
303.15 K	771.116	1258.7
308.15 K	765.66	1238.7
313.15 K	760.162	1218.5
318.15 K	754.462	1198.3

CO [methanol]
[1]
Conditions	mass density [kg/m3]	speed of sound [m/s]
298.15 K	786.531	1102.7
303.15 K	781.808	1086.4
308.15 K	777.066	1070.1
313.15 K	772.283	1054
318.15 K	767.474	1037.9

CO [methanol] + CCCCn1cc[n+](C)c1.F[P-](F)(F)(F)(F)F
[2], x2 = 0
Conditions	mass density [kg/m3]	speed of sound [m/s]
298.15 K	786.531	1102.7
303.15 K	781.808	1086.4
308.15 K	777.066	1070.1
313.15 K	772.283	1054
318.15 K	767.474	1037.9
